Measurements reported in ChEMBL document CHEMBL5465560, “Selectivity Literature for EUbOPEN Chemogenomic Library” (2024).
Values belong to the molecule of their own block, whether it stands above or below them.

Assays:
[1] = biological target: Voltage-dependent P/Q-type calcium channel subunit alpha-1A (Homo sapiens, UniProt O00555); assay: Selectivity interaction (BET inhibitor selectivity panel (Human blocker intracellular Ca2+ fluorescence assay)) EUB0000102c CACNA1A; type: cell-based
[2] = biological target: Sodium-dependent noradrenaline transporter (Homo sapiens, UniProt P23975); assay: Selectivity interaction (BET inhibitor selectivity panel (Human SPA binding assay)) EUB0000102c SLC6A2
[3] = biological target: Voltage-gated inwardly rectifying potassium channel KCNH3 (Homo sapiens, UniProt Q9ULD8); assay: Selectivity interaction (BET inhibitor selectivity panel (Human FP binding assay)) EUB0000102c KCNH3
[4] = biological target: Potassium voltage-gated channel subfamily E member 1 (Homo sapiens, UniProt P15382); assay: Selectivity interaction (BET inhibitor selectivity panel (Human Blocker ionworks assay)) EUB0000102c KCNE1
[5] = biological target: Potassium voltage-gated channel subfamily KQT member 1 (Homo sapiens, UniProt P51787); assay: Selectivity interaction (BET inhibitor selectivity panel (Human Blocker ionworks assay)) EUB0000102c KCNQ1
[6] = biological target: CREB-binding protein (Homo sapiens, UniProt Q92793); assay: Selectivity interaction (Bromodomain panel (DSF assays, literature)) EUB0000102c CREBBP
[7] = biological target: 5-hydroxytryptamine receptor 1A (Homo sapiens, UniProt P08908); assay: Selectivity interaction (BET inhibitor selectivity panel (Human SPA binding assay)) EUB0000102c HTR1A
[8] = biological target: 5-hydroxytryptamine receptor 3A (Homo sapiens, UniProt P46098); assay: Selectivity interaction (BET inhibitor selectivity panel (Human antagonist intracellular Ca2+ fluorescence assay)) EUB0000102c HTR3A; type: cell-based
[9] = biological target: Substance-K receptor (Homo sapiens) (UniProt P21452); assay: Selectivity interaction (CEREP panel (GPCRs, ion channels, and transporters)) EUB0000102c TACR2; conditions: at 10 µM
[10] = biological target: CDK1/Cyclin E (Homo sapiens) (UniProt P06493+P24864+O96020); assay: Selectivity interaction (KinaseProfilerTM (Merck Millipore) ) EUB0001631a CDK1; type: protein-complex assay; conditions: at 10 µM
[11] = biological target: Cyclin-dependent kinase 2/cyclin E1 (Homo sapiens) (UniProt P24864+P24941); assay: Selectivity interaction (NanoBRET assay in HEK293T cells) EUB0001631a CDK2; type: cell-based; conditions: HEK-293T, at 10 µM
[12] = biological target: Cyclin-dependent kinase 7 (Homo sapiens, UniProt P50613); assay: Selectivity interaction (NanoBRET assay in HEK293T cells) EUB0001631a CDK7; type: cell-based; conditions: HEK-293T, at 10 µM
[13] = biological target: CDK3/Cyclin E (Homo sapiens) (UniProt P24864+Q00526); assay: Selectivity interaction (NanoBRET assay in HEK293T cells) EUB0001631a CDK3; type: cell-based; conditions: HEK-293T, at 10 µM
[14] = biological target: Cyclin-C/Cyclin-dependent kinase 19 (Homo sapiens) (UniProt Q9BWU1+P24863); assay: Selectivity interaction (NanoBRET assay in HEK293T cells) EUB0001631a CDK19; type: cell-based; conditions: HEK-293T, at 10 µM
[15] = biological target: CDK8/Cyclin C (Homo sapiens) (UniProt P49336+P24863); assay: Selectivity interaction (NanoBRET assay in HEK293T cells) EUB0001631a CDK8; type: cell-based; conditions: HEK-293T, at 10 µM
[16] = biological target: T1, Ephrin type-A receptor 1 (Homo sapiens) (UniProt P21709); assay: Selectivity interaction (KinaseProfilerTM (Merck Millipore) ) EUB0001631a EPHA1; conditions: at 10 µM
T1 sequence (whole entry): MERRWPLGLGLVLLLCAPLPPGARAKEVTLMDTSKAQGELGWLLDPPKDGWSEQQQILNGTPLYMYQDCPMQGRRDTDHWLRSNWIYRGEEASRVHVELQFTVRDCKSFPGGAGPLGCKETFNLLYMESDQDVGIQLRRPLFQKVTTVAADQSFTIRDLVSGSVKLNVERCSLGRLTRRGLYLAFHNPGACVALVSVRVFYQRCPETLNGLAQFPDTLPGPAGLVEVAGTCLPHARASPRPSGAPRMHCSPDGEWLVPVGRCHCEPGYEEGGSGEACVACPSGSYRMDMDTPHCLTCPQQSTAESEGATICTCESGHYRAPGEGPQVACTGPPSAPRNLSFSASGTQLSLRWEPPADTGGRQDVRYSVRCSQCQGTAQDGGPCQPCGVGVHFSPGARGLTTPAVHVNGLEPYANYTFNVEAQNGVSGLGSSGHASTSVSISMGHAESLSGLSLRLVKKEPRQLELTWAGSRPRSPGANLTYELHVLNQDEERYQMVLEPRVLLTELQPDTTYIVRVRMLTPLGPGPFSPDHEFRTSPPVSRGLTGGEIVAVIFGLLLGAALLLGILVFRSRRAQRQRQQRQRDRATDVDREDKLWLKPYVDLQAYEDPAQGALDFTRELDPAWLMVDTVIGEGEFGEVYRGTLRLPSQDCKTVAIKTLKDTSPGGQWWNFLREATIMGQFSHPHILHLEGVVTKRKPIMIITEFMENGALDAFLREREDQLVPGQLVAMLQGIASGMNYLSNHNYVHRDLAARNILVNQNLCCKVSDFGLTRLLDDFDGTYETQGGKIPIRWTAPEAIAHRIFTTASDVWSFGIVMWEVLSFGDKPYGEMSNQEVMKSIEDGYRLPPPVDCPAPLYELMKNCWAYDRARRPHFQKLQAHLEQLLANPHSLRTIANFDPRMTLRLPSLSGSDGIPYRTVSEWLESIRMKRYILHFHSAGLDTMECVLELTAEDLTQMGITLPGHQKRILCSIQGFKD

[17] = biological target: CDK18/Cyclin Y (Homo sapiens) (UniProt Q07002+Q8ND76); assay: Selectivity interaction (NanoBRET assay in HEK293T cells) EUB0001631a CDK18; type: cell-based; conditions: HEK-293T, at 10 µM
[18] = biological target: CDK9/Cyclin K (Homo sapiens) (UniProt P50750+O75909); assay: Selectivity interaction (NanoBRET assay in HEK293T cells) EUB0001631a CDK9; type: cell-based; conditions: HEK-293T, at 10 µM
[19] = biological target: CDK3/cyclin E (Homo sapiens) (UniProt P24864+O96020+Q00526); assay: Selectivity interaction (KinaseProfilerTM (Merck Millipore) ) EUB0001631a CDK3; type: protein-complex assay; conditions: at 10 µM
[20] = biological target: Cyclin-dependent kinase 2/cyclin E (Homo sapiens) (UniProt P24864+P24941+O96020); assay: Selectivity interaction (KinaseProfilerTM (Merck Millipore) ) EUB0001631a CDK2; type: protein-complex assay; conditions: at 10 µM
[21] = biological target: Glycogen synthase kinase-3 alpha (Homo sapiens, UniProt P49840); assay: Selectivity interaction (KinaseProfilerTM (Merck Millipore) ) EUB0001631a GSK3A; conditions: at 10 µM
[22] = biological target: Mast/stem cell growth factor receptor Kit (Homo sapiens, UniProt P10721); assay: Selectivity interaction (KinaseProfilerTM (Merck Millipore) ) EUB0001631a KIT; conditions: at 10 µM
[23] = biological target: Glycogen synthase kinase-3 beta (Homo sapiens, UniProt P49841); assay: Selectivity interaction (KinaseProfilerTM (Merck Millipore) ) EUB0001631a GSK3B; conditions: at 10 µM
[24] = biological target: T2, Cyclin-dependent kinase 5/CDK5 activator 1 (Homo sapiens) (UniProt Q00535+Q15078); assay: Selectivity interaction (NanoBRET assay in HEK293T cells) EUB0001631a CDK5; type: cell-based; conditions: HEK-293T, at 10 µM
[25] = biological target: Cyclin-dependent kinase 4/cyclin D1 (Homo sapiens) (UniProt P11802+P24385); assay: Selectivity interaction (NanoBRET assay in HEK293T cells) EUB0001631a CDK4; type: cell-based; conditions: HEK-293T, at 10 µM
[26] = biological target: CDK15/Cyclin Y (Homo sapiens) (UniProt Q96Q40+Q8ND76); assay: Selectivity interaction (NanoBRET assay in HEK293T cells) EUB0001631a CDK15; type: cell-based; conditions: HEK-293T, at 10 µM
[27] = biological target: CDK1/Cyclin E (Homo sapiens) (UniProt P06493+P24864); assay: Selectivity interaction (NanoBRET assay in HEK293T cells) EUB0001631a CDK1; type: cell-based; conditions: HEK-293T, at 10 µM
[28] = biological target: CDK6/cyclin D1 (Homo sapiens) (UniProt P24385+Q00534); assay: Selectivity interaction (NanoBRET assay in HEK293T cells) EUB0001631a CDK6; type: cell-based; conditions: HEK-293T, at 10 µM
[29] = biological target: Cyclin-dependent kinase 13/Cyclin-K (Homo sapiens) (UniProt Q14004+O75909); assay: Selectivity interaction (NanoBRET assay in HEK293T cells) EUB0001631a CDK13; type: cell-based; conditions: HEK-293T, at 10 µM
[30] = biological target: Cyclin-Y/Cyclin-dependent kinase 16 (Homo sapiens) (UniProt Q00536+Q8ND76); assay: Selectivity interaction (NanoBRET assay in HEK293T cells) EUB0001631a CDK16; type: cell-based; conditions: HEK-293T, at 10 µM
[31] = biological target: Tyrosine-protein kinase Fyn (Homo sapiens) (UniProt P06241); assay: Selectivity interaction (KinaseProfilerTM (Merck Millipore) ) EUB0001631a FYN; conditions: at 10 µM
[32] = biological target: CDK10/Cyclin L2 (Homo sapiens) (UniProt Q15131+Q96S94); assay: Selectivity interaction (NanoBRET assay in HEK293T cells) EUB0001631a CDK10; type: cell-based; conditions: HEK-293T, at 10 µM
[33] = biological target: High affinity nerve growth factor receptor (Homo sapiens, UniProt P04629); assay: Selectivity interaction (KinaseProfilerTM (Merck Millipore) ) EUB0001631a NTRK1; conditions: at 10 µM
[34] = biological target: CDK20/Cyclin H (Homo sapiens) (UniProt P51946+Q8IZL9); assay: Selectivity interaction (NanoBRET assay in HEK293T cells) EUB0001631a CDK20; type: cell-based; conditions: HEK-293T, at 10 µM
[35] = biological target: CDK17/Cyclin-Y (Homo sapiens) (UniProt Q00537+Q8ND76); assay: Selectivity interaction (NanoBRET assay in HEK293T cells) EUB0001631a CDK17; type: cell-based; conditions: HEK-293T, at 10 µM
[36] = biological target: T2, Cyclin-dependent kinase 5/CDK5 activator 1 (Homo sapiens); assay: Selectivity interaction (KinaseProfilerTM (Merck Millipore) ) EUB0001631a CDK5; type: protein-complex assay; conditions: at 10 µM
[37] = biological target: Cyclin-dependent kinase 14/Cyclin-Y (Homo sapiens) (UniProt O94921+Q8ND76); assay: Selectivity interaction (NanoBRET assay in HEK293T cells) EUB0001631a CDK14; type: cell-based; conditions: HEK-293T, at 10 µM
[38] = biological target: Vascular endothelial growth factor receptor 3 (Homo sapiens, UniProt P35916); assay: Selectivity interaction (KinaseProfilerTM (Merck Millipore) ) EUB0001631a FLT4; conditions: at 10 µM
[39] = biological target: CDK11B/Cyclin L2 (Homo sapiens) (UniProt P21127+Q96S94); assay: Selectivity interaction (NanoBRET assay in HEK293T cells) EUB0001631a CDK11B; type: cell-based; conditions: HEK-293T, at 10 µM
[40] = biological target: CDK11A/Cyclin L2 (Homo sapiens) (UniProt Q9UQ88+Q96S94); assay: Selectivity interaction (NanoBRET assay in HEK293T cells) EUB0001631a CDK11A; type: cell-based; conditions: HEK-293T, at 10 µM
[41] = biological target: CDK12/Cyclin K (Homo sapiens) (UniProt O75909+Q9NYV4); assay: Selectivity interaction (NanoBRET assay in HEK293T cells) EUB0001631a CDK12; type: cell-based; conditions: HEK-293T, at 10 µM

T2 sequence (Q00535 whole entry): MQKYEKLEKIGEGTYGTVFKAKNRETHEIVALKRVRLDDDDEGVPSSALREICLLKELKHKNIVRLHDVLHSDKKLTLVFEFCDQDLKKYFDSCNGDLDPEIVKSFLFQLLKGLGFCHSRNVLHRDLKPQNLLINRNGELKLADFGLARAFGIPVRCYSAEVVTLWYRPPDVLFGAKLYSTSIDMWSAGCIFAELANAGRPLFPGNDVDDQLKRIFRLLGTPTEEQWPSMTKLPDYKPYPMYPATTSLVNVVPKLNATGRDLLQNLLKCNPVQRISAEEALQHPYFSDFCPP
T2 sequence (Q15078 99-307 partner limits assumed): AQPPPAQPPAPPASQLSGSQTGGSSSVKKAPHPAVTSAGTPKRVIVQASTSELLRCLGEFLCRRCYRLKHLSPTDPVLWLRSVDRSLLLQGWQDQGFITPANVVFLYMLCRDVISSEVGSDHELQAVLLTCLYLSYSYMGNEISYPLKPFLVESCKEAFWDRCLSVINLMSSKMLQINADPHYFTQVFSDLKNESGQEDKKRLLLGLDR
Chain of Vascular endothelial growth factor receptor 3 (P35916 whole entry): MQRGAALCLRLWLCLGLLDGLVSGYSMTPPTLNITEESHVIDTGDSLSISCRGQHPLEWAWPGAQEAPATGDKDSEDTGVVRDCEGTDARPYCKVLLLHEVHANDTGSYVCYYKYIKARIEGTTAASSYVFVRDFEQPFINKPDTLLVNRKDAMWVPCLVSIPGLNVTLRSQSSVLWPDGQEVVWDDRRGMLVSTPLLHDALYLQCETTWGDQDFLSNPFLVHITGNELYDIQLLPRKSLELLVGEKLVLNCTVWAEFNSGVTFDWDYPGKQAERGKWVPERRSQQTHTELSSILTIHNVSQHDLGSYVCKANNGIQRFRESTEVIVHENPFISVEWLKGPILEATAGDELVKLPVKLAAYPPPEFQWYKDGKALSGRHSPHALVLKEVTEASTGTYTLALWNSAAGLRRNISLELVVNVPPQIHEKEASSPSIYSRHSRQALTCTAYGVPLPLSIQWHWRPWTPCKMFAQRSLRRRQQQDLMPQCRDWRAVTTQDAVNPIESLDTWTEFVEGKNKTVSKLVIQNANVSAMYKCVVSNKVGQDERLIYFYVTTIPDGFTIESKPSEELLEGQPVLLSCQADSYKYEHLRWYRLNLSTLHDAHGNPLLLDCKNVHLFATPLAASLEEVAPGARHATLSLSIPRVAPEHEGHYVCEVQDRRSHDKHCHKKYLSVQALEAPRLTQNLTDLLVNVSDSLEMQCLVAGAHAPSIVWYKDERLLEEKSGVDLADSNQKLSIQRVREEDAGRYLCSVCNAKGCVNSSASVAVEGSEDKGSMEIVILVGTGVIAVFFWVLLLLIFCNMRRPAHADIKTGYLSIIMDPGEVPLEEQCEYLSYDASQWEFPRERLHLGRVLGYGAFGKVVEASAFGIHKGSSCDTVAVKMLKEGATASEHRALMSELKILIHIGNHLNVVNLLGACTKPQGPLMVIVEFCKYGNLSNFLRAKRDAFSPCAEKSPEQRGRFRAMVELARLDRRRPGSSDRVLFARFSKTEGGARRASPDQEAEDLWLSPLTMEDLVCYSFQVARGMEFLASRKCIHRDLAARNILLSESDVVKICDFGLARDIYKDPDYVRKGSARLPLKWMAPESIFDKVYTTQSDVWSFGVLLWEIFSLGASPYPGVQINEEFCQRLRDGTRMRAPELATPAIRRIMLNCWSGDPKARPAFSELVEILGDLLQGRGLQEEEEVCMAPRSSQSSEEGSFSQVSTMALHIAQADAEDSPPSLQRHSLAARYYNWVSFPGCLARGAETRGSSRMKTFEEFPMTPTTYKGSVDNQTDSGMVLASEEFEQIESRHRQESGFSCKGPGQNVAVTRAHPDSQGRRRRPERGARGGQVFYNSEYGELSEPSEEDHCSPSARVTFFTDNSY
Chain of High affinity nerve growth factor receptor (P04629 33-796 limits assumed): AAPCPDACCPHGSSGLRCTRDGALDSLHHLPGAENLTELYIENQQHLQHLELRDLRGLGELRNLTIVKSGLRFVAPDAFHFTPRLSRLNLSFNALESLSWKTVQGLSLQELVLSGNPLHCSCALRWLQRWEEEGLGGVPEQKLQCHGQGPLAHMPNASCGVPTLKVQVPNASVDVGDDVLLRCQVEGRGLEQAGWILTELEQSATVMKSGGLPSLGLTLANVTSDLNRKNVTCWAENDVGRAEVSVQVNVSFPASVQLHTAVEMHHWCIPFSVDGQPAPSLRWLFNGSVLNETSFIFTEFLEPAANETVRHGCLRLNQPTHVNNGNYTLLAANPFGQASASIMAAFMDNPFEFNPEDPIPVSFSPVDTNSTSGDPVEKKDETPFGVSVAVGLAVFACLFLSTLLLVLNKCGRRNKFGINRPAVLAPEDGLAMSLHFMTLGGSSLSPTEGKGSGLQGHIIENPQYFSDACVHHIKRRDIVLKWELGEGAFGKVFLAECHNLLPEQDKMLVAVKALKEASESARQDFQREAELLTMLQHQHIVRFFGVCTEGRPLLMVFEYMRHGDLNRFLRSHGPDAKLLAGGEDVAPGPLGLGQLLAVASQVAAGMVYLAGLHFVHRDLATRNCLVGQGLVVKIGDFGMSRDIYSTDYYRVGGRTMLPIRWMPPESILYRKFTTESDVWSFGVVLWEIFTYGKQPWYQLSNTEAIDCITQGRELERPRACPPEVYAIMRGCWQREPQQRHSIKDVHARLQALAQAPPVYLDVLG
Chain of CDK1/Cyclin E (Homo sapiens) (UniProt P06493+P24864) (P06493 whole entry, looked up): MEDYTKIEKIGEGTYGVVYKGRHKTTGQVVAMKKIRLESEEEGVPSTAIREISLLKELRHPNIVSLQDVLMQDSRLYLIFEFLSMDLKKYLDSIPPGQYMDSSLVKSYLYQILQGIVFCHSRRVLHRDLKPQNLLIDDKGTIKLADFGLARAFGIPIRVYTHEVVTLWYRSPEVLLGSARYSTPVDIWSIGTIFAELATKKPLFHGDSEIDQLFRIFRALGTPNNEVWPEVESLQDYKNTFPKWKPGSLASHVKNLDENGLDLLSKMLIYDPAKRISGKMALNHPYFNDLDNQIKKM
Chain of CDK1/Cyclin E (Homo sapiens) (UniProt P06493+P24864) (P24864 whole entry, looked up): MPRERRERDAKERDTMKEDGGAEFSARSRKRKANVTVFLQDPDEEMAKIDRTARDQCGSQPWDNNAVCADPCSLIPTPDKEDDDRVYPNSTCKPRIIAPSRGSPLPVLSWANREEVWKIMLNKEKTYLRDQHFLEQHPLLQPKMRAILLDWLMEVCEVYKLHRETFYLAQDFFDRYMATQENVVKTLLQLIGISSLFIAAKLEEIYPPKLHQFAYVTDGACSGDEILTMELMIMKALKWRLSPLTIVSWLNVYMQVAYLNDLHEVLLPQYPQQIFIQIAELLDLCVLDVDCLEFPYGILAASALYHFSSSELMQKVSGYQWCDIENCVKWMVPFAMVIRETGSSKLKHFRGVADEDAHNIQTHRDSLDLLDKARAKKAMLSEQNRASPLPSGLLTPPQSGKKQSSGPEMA
Chain of Tyrosine-protein kinase Fyn (Homo sapiens) (P06241 2-537 limits assumed): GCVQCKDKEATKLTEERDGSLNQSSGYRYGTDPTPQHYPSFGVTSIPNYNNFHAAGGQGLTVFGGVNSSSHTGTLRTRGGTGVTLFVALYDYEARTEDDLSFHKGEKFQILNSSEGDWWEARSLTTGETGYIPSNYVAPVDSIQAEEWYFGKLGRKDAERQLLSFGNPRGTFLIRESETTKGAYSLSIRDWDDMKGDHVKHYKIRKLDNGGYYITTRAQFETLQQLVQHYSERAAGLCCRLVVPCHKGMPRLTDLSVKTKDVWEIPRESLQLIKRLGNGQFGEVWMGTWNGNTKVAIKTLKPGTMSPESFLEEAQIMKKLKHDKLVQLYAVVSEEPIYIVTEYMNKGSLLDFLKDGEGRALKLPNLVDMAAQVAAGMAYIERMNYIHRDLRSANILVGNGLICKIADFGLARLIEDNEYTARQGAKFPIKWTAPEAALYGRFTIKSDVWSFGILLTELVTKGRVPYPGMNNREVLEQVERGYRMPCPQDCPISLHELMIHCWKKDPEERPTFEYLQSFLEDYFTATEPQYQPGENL
Chain of Sodium-dependent noradrenaline transporter (P23975 whole entry): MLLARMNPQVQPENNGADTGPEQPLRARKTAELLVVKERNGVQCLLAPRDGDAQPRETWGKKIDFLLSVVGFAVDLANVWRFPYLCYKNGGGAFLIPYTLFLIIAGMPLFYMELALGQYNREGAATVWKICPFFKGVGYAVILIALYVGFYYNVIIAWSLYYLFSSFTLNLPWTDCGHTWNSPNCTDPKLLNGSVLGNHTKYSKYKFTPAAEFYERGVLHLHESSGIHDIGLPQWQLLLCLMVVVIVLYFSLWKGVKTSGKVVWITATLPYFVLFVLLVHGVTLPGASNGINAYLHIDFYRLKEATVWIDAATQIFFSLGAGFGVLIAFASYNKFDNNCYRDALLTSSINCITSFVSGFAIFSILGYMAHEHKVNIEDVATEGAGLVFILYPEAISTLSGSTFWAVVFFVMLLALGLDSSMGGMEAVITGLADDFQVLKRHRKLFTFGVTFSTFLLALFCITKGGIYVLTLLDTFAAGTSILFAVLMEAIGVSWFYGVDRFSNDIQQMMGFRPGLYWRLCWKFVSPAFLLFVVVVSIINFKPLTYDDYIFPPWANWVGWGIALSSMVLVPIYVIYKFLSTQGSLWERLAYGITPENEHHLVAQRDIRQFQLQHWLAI
Chain of Cyclin-dependent kinase 7 (P50613 whole entry): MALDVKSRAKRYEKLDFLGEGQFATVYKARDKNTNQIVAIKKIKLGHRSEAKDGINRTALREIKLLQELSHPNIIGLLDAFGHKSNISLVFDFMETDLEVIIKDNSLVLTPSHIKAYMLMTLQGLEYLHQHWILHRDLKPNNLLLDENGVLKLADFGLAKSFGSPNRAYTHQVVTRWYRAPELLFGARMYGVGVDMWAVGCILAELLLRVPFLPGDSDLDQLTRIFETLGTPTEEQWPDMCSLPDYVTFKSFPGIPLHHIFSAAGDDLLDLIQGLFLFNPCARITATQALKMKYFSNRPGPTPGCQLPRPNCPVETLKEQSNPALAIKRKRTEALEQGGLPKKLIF

- IC50 [1]: 1.26 µM
- IC50 [2]: > 100 µM
- IC50 [3]: 40 µM
- IC50 [4]: > 25 µM
- IC50 [5]: > 25 µM
- dTM [6]: < 3 K
- IC50 [7]: > 100 µM
- IC50 [8]: > 50 µM
- % of inhibition [9]: 48%
SMILES: COc1cc2c(cc1-c1c(C)noc1C)ncc1[nH]c(=O)n([C@H](C)c3ccccn3)c12

- % of control [10]: 14%
- % of inhibition [11]: 41.7%
- % of inhibition [12]: 16.8%
- % of inhibition [13]: 48.4%
- % of inhibition [14]: 11.1%
- % of inhibition [15]: 3%
- % of control [16]: 20%
- % of inhibition [17]: 19.9%
- % of inhibition [18]: 97.9%
- % of control [19]: 10%
- % of control [20]: 13%
- % of control [21]: 4%
- % of control [22]: 6%
- % of control [23]: 3%
- % of inhibition [24]: 26.1%
- % of inhibition [25]: 31.5%
- % of inhibition [26]: 4.5%
- % of inhibition [27]: 16.6%
- % of inhibition [28]: 64.1%
- % of inhibition [29]: 4.8%
- % of inhibition [30]: 38.6%
- % of control [31]: 24%
- % of inhibition [32]: 6.3%
- % of control [33]: 20%
- % of inhibition [34]: 1.3%
- % of inhibition [35]: 31%
- % of control [36]: 20%
- % of inhibition [37]: 3%
- % of control [38]: 30%
- % of inhibition [39]: 7.4%
- % of inhibition [40]: 10%
- % of inhibition [41]: 8.2%
SMILES: COc1cc(F)ccc1-c1ncnc(Nc2cccc(C[S@](C)(=N)=O)c2)n1
